Source: patent publication US11319347B2, “Peptide compound and method for producing same, composition for screening use, and method for selecting peptide compound” (FUJIFILM Corporation, priority 2017, dated 2022)

What was measured:
[1] = Metabolic stability of cyclic peptides in human liver microsomes (HLM residual rate); type: in vitro ADME; settings: 1 μmol/L, human liver microsomes 0.5 mg protein/mL, 37° C., 20 minutes, NADPH and UDPGA
Description: Test of metabolic stability of cyclic peptide in human liver microsome
An experiment using human liver microsomes (HLMs) was carried out in order to compare and examine the metabolic stability of the synthesized cyclic peptides.
The compound with a final concentration of 1 μmol/L was incubated in human liver microsomes (BD Cat #452117) prepared to a final concentration of 0.5 mg protein/mL using 100 mmol/L phosphate buffer (pH 7.4) at 37° C. for 20 minutes in the presence of reduced nicotinamide adenine dinucleotide phosphate (NADPH) and uridine 5′-diphosphate-α-D-glucuronic acid (UDPGA). Deproteinization treatment with acetonitrile was carried out, the amount of unaltered substance remaining was quantified using LC/MS/MS, and the residual rate (%) in 20 minutes was calculated. The HLM residual rate (%) obtained by this method is described in the following table.
(§1) Evaluation standards are as follows.

[2] = Membrane permeability of synthesized cyclic peptides by PAMPA (Measurement Method A: 1 μmol/L; Method B: 10 μmol/L); type: in vitro ADME; settings: Measurement method A, 25° C., 4 hours
Description: Evaluation of membrane permeability of synthesized cyclic peptide by PAMPA method In order to compare and examine the membrane permeability of the synthesized cyclic peptide, parallel artificial membrane permeability assay (PAMPA) was carried out.
An artificial phospholipid membrane was produced by adding 5 μL of a phospholipid organic solvent solution consisting of L-α-phosphatidylcholine (Avanti Polar Lipids, Inc., Cat. 840051P, 1.67%), 1,2-dioleoyl-sn-glycero-3-phospho-L-serine (Avanti Polar Lipids, Inc., Cat. 840035P, 0.33%), and n-dodecane special grade (Wako Pure Chemical Industries, Ltd., 047-21612)/1-octanol reagent special grade (Kanto Chemical Co., Inc., Cat. 31013-08)=10:1 to Filter Plate (Merck Millipore Corporation, Cat. MAIPN4550).
475 μL of 50 mmol/L potassium phosphate buffer (KPB, pH 7.4 or pH 6.5) was added to 25 μL of a DMSO solution containing the compound at a concentration of 20 μmol/L, so that the compound was diluted to a final concentration of 1 μmol/L. 300 μL of the compound solution was added to the lower side (donor side) of PAMPA 96-well plate (Filter Plate (Merck Millipore Corporation, Cat. MAIPN4550)) with an artificial phospholipid membrane being interposed therebetween. 200 μL of 5% DMSO KPB (pH 7.4) was added to the upper side (acceptor side) with the artificial phospholipid membrane being interposed therebetween. A permeation test through an artificial phospholipid membrane was carried out at 25° C. for 4 hours. The compound concentration in the solution in the donor plate and the acceptor plate was measured by LC/MS/MS, and the membrane permeation rate (Pe) of the compound was calculated from the following formula, assuming that C0 is an initial compound concentration in donor solution, t is a test time, A is a membrane filter area=0.3 cm^2, VD is a donor solution amount=300 μL, VA is an acceptor solution amount=200 μL, and CD(t) is a compound concentration in donor solution at time t, CA(t) is a compound concentration in acceptor solution at time t, and Cequilibrium=[CD(t)*VD+CA(t)*VA]/(VD+VA).
475 μL of 50 mmol/L potassium phosphate buffer (KPB, pH 7.4 or pH 6.5) was added to 25 μL of a DMSO solution containing the compound at a concentration of […], so that the compound was diluted to a final concentration of 10 μmol/L. The compound solution was added 300 μL each to the lower side (donor side) of an artificial phospholipid membrane of PAMPA 96-well plate (Filter Plate (Merck Millipore Corporation, Cat. MAIPN4550)). 200 μL of 5% DMSO KPB (pH 7.4) was added to the upper side (acceptor side) with the artificial phospholipid membrane being interposed therebetween. A permeation test through an artificial phospholipid membrane was carried out at 25° C. for 4 hours. The compound concentration in the solution in the donor plate and the acceptor plate was measured by LC/MS/MS, and the membrane permeation rate (Pe) of the compound was calculated from the following formula, assuming that Co is an initial compound concentration in donor solution, t is a test time, A is a membrane filter area=0.3 cm^2, VD is a donor solution amount=300 μL, VA is an acceptor solution amount=200 μL, and CD(t) is a compound concentration in donor solution at time t, CA(t) is a compound concentration in acceptor solution at time t, and Cequilibrium=[CD(t)*VD+CA(t)*VA]/(VD+VA).
The membrane permeability (Pe(10^−6 cm/s)) obtained by this method is described in the following table.
as §1

Row | Structure (SMILES) | HLM residual rate [1] | Pe(10^−6 cm/sec) [2]
1 | N=C(N)NCCC[C@@H]1NC(=O)[C@H](Cc2c[nH]c3ccccc23)NC(=O)[C@@H](CC2CCCCC2)NC(=O)[C@@H]2CCCN2C(=O)[C@@H]2CSC(=N2)c2cc3c(cccc3s2)C[C@@H](C(N)=O)NC1=O [2-1] | +++ (60%<HLM residual rate (%)) | +++ (0.5<Pe (10^−6 cm/s))
2 | N=C(N)NCCC[C@@H]1NC(=O)[C@H](Cc2c[nH]c3ccccc23)NC(=O)[C@@H](CC2CCCCC2)NC(=O)[C@@H]2CCCN2C(=O)[C@@H]2CSC(=N2)c2ccncc2C[C@@H](C(N)=O)NC1=O [2-5] | ++ (40%<HLM residual rate (%)≤60%) | ++ (0.2<Pe (10^−6 cm/s)≤0.5)
3 | N=C(N)NCCC[C@@H]1NC(=O)[C@H](Cc2c[nH]c3ccccc23)NC(=O)[C@@H](CC2CCCCC2)NC(=O)[C@@H]2CCCN2C(=O)[C@@H]2CSC(=N2)c2cncc(c2)C[C@@H](C(N)=O)NC1=O [2-7] | +++ (60%<HLM residual rate (%)) | +++ (0.5<Pe (10^−6 cm/s))
4 | N=C(N)NCCC[C@@H]1NC(=O)[C@H](Cc2c[nH]c3ccccc23)NC(=O)[C@@H](CC2CCCCC2)NC(=O)[C@@H]2CCCN2C(=O)[C@@H]2CSC(=N2)c2cc(cs2)C[C@@H](C(N)=O)NC1=O [2-16] | ++ (40%<HLM residual rate (%)≤60%) | +++ (0.5<Pe (10^−6 cm/s))
5 | CC1(C)SC2=N[C@@H]1C(=O)N1CCC[C@H]1C(=O)N[C@H](CC1CCCCC1)C(=O)N[C@@H](Cc1c[nH]c3ccccc13)C(=O)N[C@@H](CCCNC(=N)N)C(=O)N[C@H](C(N)=O)Cc1cccc2n1 [2-21] | +++ (60%<HLM residual rate (%)) | +++ (0.5<Pe (10^−6 cm/s))

Continued, values first:

Row | HLM residual rate [1] | Pe(10^−6 cm/sec) [2] | Structure (SMILES)
6 | +++ (60%<HLM residual rate (%)) | ++ (0.2<Pe (10^−6 cm/s)≤0.5) | N=C(N)NCCC[C@@H]1NC(=O)[C@H](Cc2c[nH]c3ccccc23)NC(=O)[C@@H](CC2CCCCC2)NC(=O)[C@@H]2CCCN2C(=O)[C@@H]2CSC(=N2)c2cccnc2C[C@@H](C(N)=O)NC1=O [2-6]
7 | +++ (60%<HLM residual rate (%)) | +++ (0.5<Pe (10^−6 cm/s)) | N=C(N)NCCC[C@@H]1NC(=O)[C@H](Cc2c[nH]c3ccccc23)NC(=O)[C@@H](CC2CCCCC2)NC(=O)[C@@H]2CCCN2C(=O)[C@@H]2CSC(=N2)c2ccnc(c2)C[C@@H](C(N)=O)NC1=O [2-10]
8 | +++ (60%<HLM residual rate (%)) | +++ (0.5<Pe (10^−6 cm/s)) | N=C(N)NCCC[C@@H]1NC(=O)[C@H](Cc2c[nH]c3ccccc23)NC(=O)[C@@H](CC2CCCCC2)NC(=O)[C@@H]2CCCN2C(=O)[C@@H]2CSC(=N2)c2ccc(nc2)C[C@@H](C(N)=O)NC1=O [2-11]
9 | ++ (40%<HLM residual rate (%)≤60%) |  | N=C(N)NCCC[C@@H]1NC(=O)[C@H](Cc2c[nH]c3ccccc23)NC(=O)[C@@H](CC2CCCCC2)NC(=O)[C@@H]2CCCN2C(=O)[C@@H]2CSC(=N2)c2ccc(nn2)C[C@@H](C(N)=O)NC1=O [2-15]
10 | ++ (40%<HLM residual rate (%)≤60%) |  | N=C(N)NCCC[C@@H]1NC(=O)[C@H](Cc2c[nH]c3ccccc23)NC(=O)[C@@H](CC2CCCCC2)NC(=O)[C@@H]2CCCN2C(=O)[C@@H]2CSC(=N2)c2nc(cs2)C[C@@H](C(N)=O)NC1=O [2-18]
11 | +++ (60%<HLM residual rate (%)) | +++ (0.5<Pe (10^−6 cm/s)) | N=C(N)NCCC[C@@H]1NC(=O)[C@H](Cc2c[nH]c3ccccc23)NC(=O)[C@@H](CC2CCCCC2)NC(=O)[C@@H]2CCCN2C(=O)[C@@H]2CSC(=N2)c2csc(n2)C[C@@H](C(N)=O)NC1=O [2-19]
12 | ++ (40%<HLM residual rate (%)≤60%) |  | N=C(N)NCCC[C@@H]1NC(=O)[C@H](Cc2c[nH]c3ccccc23)NC(=O)[C@@H](CC2CCCCC2)NC(=O)[C@@H]2CCCN2C(=O)[C@@H]2CSC(=N2)c2n[nH]cc2C[C@@H](C(N)=O)NC1=O [2-20]
13 | +++ (60%<HLM residual rate (%)) |  | N=C(N)NCCC[C@@H]1NC(=O)[C@H](Cc2c[nH]c3ccccc23)NC(=O)[C@@H](CC2CCCCC2)NC(=O)[C@@H]2CCCN2C(=O)[C@@H]2CSC(=N2)c2ncccc2C[C@@H](C(N)=O)NC1=O [3-3]
